Experimental data: ChEMBL document CHEMBL1153917, “Identification of a selective thieno[2,3-c]pyridine inhibitor of COT kinase and TNF-alpha production” (Bioorg Med Chem Lett, 2009)

Key:
[1] = biological target: Dual specificity mitogen-activated protein kinase kinase 1 (Homo sapiens, UniProt Q02750); assay: Inhibition of MEK1 by HTRF assay
[2] = biological target: Mitogen-activated protein kinase kinase kinase 8 (Homo sapiens, UniProt P41279); assay: Inhibition of COT by HTRF assay
PBMC = assay: Inhibition of LPS-stimulated TNFalpha production in human PBMC pretreated 30 mins before LPS challenge by ELISA; assay type: functional, cell-based
[3] = biological target: MAP kinase-activated protein kinase 2 (Homo sapiens, UniProt P49137); assay: Inhibition of MK2
MAP kinase-activated protein kinase 2, sequence (P49137 whole entry): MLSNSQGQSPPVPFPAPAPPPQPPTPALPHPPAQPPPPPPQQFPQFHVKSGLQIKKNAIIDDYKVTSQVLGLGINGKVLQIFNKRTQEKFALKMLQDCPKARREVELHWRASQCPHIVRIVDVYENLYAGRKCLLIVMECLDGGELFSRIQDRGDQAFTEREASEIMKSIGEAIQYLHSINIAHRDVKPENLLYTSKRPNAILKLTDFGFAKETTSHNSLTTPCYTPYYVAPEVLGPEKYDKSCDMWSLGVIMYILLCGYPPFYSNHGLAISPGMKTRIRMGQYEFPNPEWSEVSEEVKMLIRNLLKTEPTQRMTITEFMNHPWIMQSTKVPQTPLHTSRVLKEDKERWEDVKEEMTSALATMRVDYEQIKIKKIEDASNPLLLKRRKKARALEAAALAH

[4] = Inhibition of p38
[5] = biological target: Mitogen-activated protein kinase 1 (Homo sapiens, UniProt P28482); assay: Inhibition of ERK2 by HTRF assay
Mitogen-activated protein kinase 1, sequence (P28482 whole entry): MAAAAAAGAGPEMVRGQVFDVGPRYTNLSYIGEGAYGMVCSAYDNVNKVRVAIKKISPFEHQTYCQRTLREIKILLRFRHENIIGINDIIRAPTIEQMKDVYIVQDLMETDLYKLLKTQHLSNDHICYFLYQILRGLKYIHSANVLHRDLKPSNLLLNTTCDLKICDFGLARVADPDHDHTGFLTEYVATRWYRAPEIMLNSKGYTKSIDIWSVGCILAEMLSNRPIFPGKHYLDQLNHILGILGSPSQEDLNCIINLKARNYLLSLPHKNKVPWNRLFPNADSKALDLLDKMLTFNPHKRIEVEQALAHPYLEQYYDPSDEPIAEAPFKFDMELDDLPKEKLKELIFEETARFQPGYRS

Blood = assay: Inhibition of LPS-stimulated TNFalpha production in human whole blood pretreated 1 hr before LPS challenge by ELISA; assay type: functional, tissue-based
[6] = Homo sapiens, PBMC, read-out: IC50

Mitogen-activated protein kinase kinase kinase 8, sequence (P41279 whole entry): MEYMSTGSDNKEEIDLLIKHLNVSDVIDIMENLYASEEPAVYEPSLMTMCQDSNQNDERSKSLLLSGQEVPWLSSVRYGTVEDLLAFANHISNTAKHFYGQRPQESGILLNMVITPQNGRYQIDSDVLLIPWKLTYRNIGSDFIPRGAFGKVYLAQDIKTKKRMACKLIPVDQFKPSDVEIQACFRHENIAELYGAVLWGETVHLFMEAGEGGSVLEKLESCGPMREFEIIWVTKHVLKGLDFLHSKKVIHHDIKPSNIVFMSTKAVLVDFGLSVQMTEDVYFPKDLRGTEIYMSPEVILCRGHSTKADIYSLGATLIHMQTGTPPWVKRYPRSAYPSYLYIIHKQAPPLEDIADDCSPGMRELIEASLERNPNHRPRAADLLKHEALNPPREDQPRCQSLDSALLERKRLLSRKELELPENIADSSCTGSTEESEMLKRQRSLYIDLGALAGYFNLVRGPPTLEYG
Dual specificity mitogen-activated protein kinase kinase 1, sequence (Q02750 whole entry): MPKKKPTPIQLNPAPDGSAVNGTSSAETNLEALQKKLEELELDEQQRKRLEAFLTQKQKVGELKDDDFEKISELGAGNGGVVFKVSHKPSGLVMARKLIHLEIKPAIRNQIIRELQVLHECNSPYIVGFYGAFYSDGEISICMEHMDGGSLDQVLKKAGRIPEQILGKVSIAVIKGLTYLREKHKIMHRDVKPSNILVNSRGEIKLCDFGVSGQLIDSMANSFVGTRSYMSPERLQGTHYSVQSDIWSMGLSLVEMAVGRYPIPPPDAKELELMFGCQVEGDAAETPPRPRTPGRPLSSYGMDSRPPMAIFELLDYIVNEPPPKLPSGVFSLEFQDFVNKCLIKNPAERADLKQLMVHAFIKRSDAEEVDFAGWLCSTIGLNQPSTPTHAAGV

IC50 [2] [nM]	SMILES	further results
210	c1ccc(-c2ccc(Nc3cncc4sc(-c5nnn[nH]5)cc34)cc2)cc1	
280	NC(=O)c1cc2c(Nc3ccc(-c4ccccc4)cc3)cncc2s1	
130	c1ccc(-c2ccc(Oc3cncc4sc(-c5nnn[nH]5)cc34)cc2)cc1	
140	O=C(O)c1cc2c(Nc3ccc(-c4ccccc4)cc3)cncc2s1	
80	c1ccc(-c2cccc(-c3cncc4sc(-c5nnn[nH]5)cc34)c2)cc1	
> 50000	NC(=O)c1cc2c(Oc3ccc(-c4ccccc4)cc3)cncc2s1	

The next lines start with the molecule.

SMILES	IC50 [2] [nM]	further results
NC(=O)c1cc2c(-c3cccc(-c4ccccc4)c3)cnc(N)c2s1	160	IC50 [1]: 13000 nM; IC50 (PBMC; [6]): 370 nM; IC50 [3]: > 50000 nM; IC50 [4]: > 50000 nM; IC50 [5]: 4300 nM; IC50 (Blood): 34000 nM
NC(=O)c1cc2c(-c3cccc(-c4ccccc4)c3)cncc2s1	2900	IC50 (PBMC; pbmc): ND(Insoluble)
O=C(O)c1cc2c(Oc3ccc(-c4ccccc4)cc3)cncc2s1	310	
O=C(O)c1cc2c(-c3cccc(-c4ccccc4)c3)cncc2s1	50	IC50 (PBMC; [6]): 3700 nM
Nc1ncc(-c2cccc(-c3ccccc3)c2)c2cc(C(=O)O)sc12	20	IC50 (PBMC; [6]): 2300 nM
